The values that follow come from US10548843B2, “Sustained-release silica composite depot non-steroidal anti-inflammatory drug delivery” (Solani Therapeutics, priority 2015, dated 2020).

Molecules are shown by their SMILES.

The conditions of series [1]: dogs, single oral administration; cited from earlier work.
The conditions of series [2]: cited from earlier work.
The nature of series [3]: Concentration of meloxicam in plasma of dogs after single subcutaneous silica hydrogel depot. The settings on record: dog, sc, 3.16 mg meloxicam/kg bodyweight, single s.c. silica hydrogel depot. In kind it is in vivo. On the procedure: Example 1 relates to animal studies carried out. […] The appropriate dose of TI was administered subcutaneously as a one off dose at the area behind the shoulder blade.

Series [4] is described as follows: Mouse study: body weight at necropsy. In kind it is in vivo, mouse (BALB/cAnNCrl, male). The following applies: SiO2 left flank, SiO2 with meloxicam right flank, s.c. 0.1 ml. On the procedure:
A mouse study was carried out using 15 animals from University of Turku, Central Animal Laboratory, Pharmacity breeding unity. All animals were BALB/cAnNCrl, male. The animals were acclimatised for 15 days. No period of isolation was needed. At the start of the study the animals were aged 10-13 weeks and weighed 28.9 g±1.38 g (min. 26.6 g, max 31.1 g).
Administration of the test items was carried out according to the study design set out in Table 3. The test item was administered by subcutaneous (back) injection using a syringe and an 18G needle at a dose volume of 0.1 ml/mouse.
Animals were weighed and euthanized (CO2) at the end of the experiment (Animals #1, 2, and 3 were not weighed). The injection sites were macroscopically observed and digital pictures from test items in soft tissue was taken at the each time point. The test item (gel) was removed from a soft tissue when possible.

Setting [5] is: Animal 4, necropsy 7 days after injections.
[6] abbreviates: Animal 7, necropsy 14 days after injections.
[7] abbreviates: Animal 10, necropsy 28 days after injections.

`NS(=O)(=O)c1ccc(-n2nc(C(F)(F)F)cc2-c2ccc(F)cc2)cc1` [Mavacoxib]: the “Time a therapeutic level is maintained” value in series [1] is “one month”.

As to `CC(C(=O)O)c1ccc2c(c1)[nH]c1ccc(Cl)cc12` (centres unmarked) [carprofen], in series [2], the Solubility in water result is “practically insoluble in water”.

As for `Cc1cnc(NC(=O)C2=C(O)c3ccccc3S(=O)(=O)N2C)s1` [meloxicam], the concentration at 0 hours in series [3] (Dog 1, 0.0 hours) was 0 ng/mL; in series [3] (Dog 2, 0.0 hours), 0 ng/mL; in series [3] (Dog 3, 0.0 hours) it was 0 ng/mL. Moreover, the concentration at 0.5 hours in series [3] (Dog 1, 0.5 hours) is 43.2 ng/mL; in series [3] (Dog 2, 0.5 hours), 27 ng/mL; in series [3] (Dog 3, 0.5 hours) it was 27.1 ng/mL. Moreover, the concentration at 1 hours in series [3] (Dog 1, 1.0 hours) is 132 ng/mL; in series [3] (Dog 2, 1.0 hours) it was 76 ng/mL; in series [3] (Dog 3, 1.0 hours), 93.9 ng/mL. Moreover, the concentration at 2 hours in series [3] (Dog 1, 2.0 hours) is 296 ng/mL; in series [3] (Dog 2, 2.0 hours) it was 153 ng/mL; in series [3] (Dog 3, 2.0 hours) it was 215 ng/mL. Moreover, the concentration at 3 hours in series [3] (Dog 1, 3.0 hours) turned out to be 379 ng/mL; in series [3] (Dog 2, 3.0 hours), 227 ng/mL; in series [3] (Dog 3, 3.0 hours), 301 ng/mL. Also, the concentration at 4 h in series [3] (Dog 1, 4.0 hours) came out at 402 ng/mL; in series [3] (Dog 2, 4.0 hours), 257 ng/mL; in series [3] (Dog 3, 4.0 hours) it was 319 ng/mL. The concentration at 6 h amounted to 375 ng/mL in series [3] (Dog 1, 6.0 hours); 349 ng/mL in series [3] (Dog 2, 6.0 hours); 359 ng/mL in series [3] (Dog 3, 6.0 hours). Besides, the concentration at 8 h came to 294 ng/mL in series [3] (Dog 1, 8.0 hours); 344 ng/mL in series [3] (Dog 2, 8.0 hours); 404 ng/mL in series [3] (Dog 3, 8.0 hours). For the same compound, the concentration at 12 h in series [3] (Dog 1, 12.0 hours) came to 363 ng/mL; in series [3] (Dog 2, 12.0 hours) it was 447 ng/mL; in series [3] (Dog 3, 12.0 hours), 559 ng/mL. Also, the concentration at 504 h in series [3] (Dog 1, 504.0 hours) was 4.3 ng/mL; in series [3] (Dog 2, 504.0 hours), 115 ng/mL; in series [3] (Dog 3, 504.0 hours), 33.1 ng/mL. Also, the concentration at 576 h in series [3] (Dog 1, 576.0 hours) worked out at 2.6 ng/mL; in series [3] (Dog 2, 576.0 hours), 101 ng/mL; in series [3] (Dog 3, 576.0 hours), 16.6 ng/mL. In addition, in series [3] (Dog 1, 672.0 hours), the concentration at 672 h amounted to 1.5 ng/mL. The concentration at 840 hours in series [3] (Dog 1, 840.0 hours) turned out to be 1 ng/mL; in series [3] (Dog 2, 840.0 hours) it was 40.1 ng/mL; in series [3] (Dog 3, 840.0 hours), 6.5 ng/mL. Also, the concentration at 1008 hours in series [3] (Dog 1, 1008.0 hours) worked out at 0.9 ng/mL; in series [3] (Dog 2, 1008.0 hours) it was 17.9 ng/mL; in series [3] (Dog 3, 1008.0 hours), 5.6 ng/mL. For the same compound, the concentration at 1176 hours is 0.5 ng/mL in series [3] (Dog 1, 1176.0 hours); 5.6 ng/mL in series [3] (Dog 2, 1176.0 hours); 3 ng/mL in series [3] (Dog 3, 1176.0 hours). Also, the concentration at 1344 hours was 0.4 ng/mL in series [3] (Dog 1, 1344.0 hours); 2.6 ng/mL in series [3] (Dog 2, 1344.0 hours); 2.4 ng/mL in series [3] (Dog 3, 1344.0 hours). Besides, the concentration at 672 hours turned out to be 67.3 ng/mL in series [3] (Dog 2, 672.0 hours) and 11.6 ng/mL in series [3] (Dog 3, 672.0 hours). In series [2] (methanol), the Solubility in methanol result is on record as “very slightly soluble”. Also, the “Solubility in strong acids and bases” value in series [2] (strong acids and bases, compared with water) is recorded as “higher solubility”. Moreover, the Solubility in water entry in series [2] was “practically insoluble in water”. Moreover, the values for the Weight at necropsy in series [4] (setting [5]), in series [4] (setting [6]) and in series [4] (setting [7]) were 27.3 g, 29.0 g and 32.7 g, respectively. Further, the Weight gain in series [4] (setting [5]) is -0.7 g; in series [4] (setting [6]), 0.0 g; in series [4] (setting [7]), 1.6 g.
